This note sets out measurements from patent US6635786B2, “Symmetrically disubstituted aromatic compounds and pharmaceutical compositions for inhibiting poly (ADP-ribose) glycohydrolase, and methods for their use” (Guilford Pharmaceuticals, Inc., priority 2001, dated 2003).

The target in the experiment is T1, human PARG (Homo sapiens, UniProt Q86W56).
T1 construct: human PARG from amino acid 378 to 976; GST (glutathione-S-transferase, pGEX-4T1) (N); made in house; host or cells: E. coli BL21
T1 sequence (Q86W56 378-976): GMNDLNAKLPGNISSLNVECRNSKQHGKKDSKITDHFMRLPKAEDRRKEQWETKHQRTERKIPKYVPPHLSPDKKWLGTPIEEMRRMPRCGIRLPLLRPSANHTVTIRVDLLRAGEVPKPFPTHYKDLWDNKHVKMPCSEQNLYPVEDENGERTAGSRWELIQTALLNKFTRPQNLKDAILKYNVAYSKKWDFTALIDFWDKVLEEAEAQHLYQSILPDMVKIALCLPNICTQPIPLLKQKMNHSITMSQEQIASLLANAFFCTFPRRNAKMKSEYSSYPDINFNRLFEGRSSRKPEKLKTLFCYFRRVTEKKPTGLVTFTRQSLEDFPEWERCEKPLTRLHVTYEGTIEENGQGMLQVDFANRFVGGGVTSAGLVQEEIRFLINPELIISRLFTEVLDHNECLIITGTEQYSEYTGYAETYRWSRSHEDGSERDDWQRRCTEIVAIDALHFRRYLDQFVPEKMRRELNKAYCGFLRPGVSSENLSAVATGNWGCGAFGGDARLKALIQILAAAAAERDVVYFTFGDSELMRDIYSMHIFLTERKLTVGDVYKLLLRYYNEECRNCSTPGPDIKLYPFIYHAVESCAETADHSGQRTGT
Nature of the experiment: PARG enzymatic assay. It is filed as biochemical. Conditions: recombinant GST-fused human PARG (aa 378-976); 3H-labeled poly-(ADP-ribose) substrate; 23° C., 10 min. The procedure:
The potency of PARG inhibition was determined in a PARG enzymatic assay. For each compound, various doses were used to inhibit the PARG reaction. A dose responsible curve was generated to determine the IC50 value and the concentration (in μM) required to achieve 50% inhibition of the reaction.
The PARG assay consisted of (a) preparation of 3H-labeled radioactive PARG as substrate, (b) purification of recombinant PARG, (c) incubation of the compound with the PARG reaction, (d) separation of the product by absorption to glass fiber filter and quantifying the radioactivity of ADP-ribose by scintillation counting.
3H-labeled poly-(ADP-ribose) was made by mixing labeled and unlabeled PAR. Labeled PAR was synthesized in a reaction of 50 mM Tris-HCl (pH 8.0), 4 mM MgCl2, 0.8 μg/mL activated DNA, 3 μM NAD, NEN 3H-NAD (0.1 mCi/mL), 0.8 μl/mL and 1.4 μl/mL Trevigen PARP. The reaction was incubated at room temperature for 60 min, then dialyzed to remove unincorporated 3H NAD using a MWCO 7000 dialysis cassette in 50 mM Phosphate buffer (pH 7.1) at 5° C. over night. Buffer was changed and dialysis continued for 2 h in the morning. The resulting 3H PAR gave 80,000 DPM/10 μL by scintillation counting.
Unlabeled PAR was synthesized in a reaction that consisted of 50 mM Tris-HCl (pH 8.0), 4 mM MgCl2, 0.8 μg/mL activated DNA, 150 μM NAD, and 1.9 μl/mL Trevigen PARP. The reaction was incubated at room temperature for 60 min, and dialyzed to remove unincorporated NAD in a MWCO 7000 cassette using 50 mM Phosphate buffer (pH 7.1) over night at […]. Buffer was changed and dialysis continued for 2 h in the morning. The OD260 of synthesized PAR is […].
The final PAR mix is made by combining 3H-PAR and PAR synthesized @ 150 μM NAD so that the OD260=0.2-0.3 and the DPM/10 μL=10,000 DPM (SA=0.45 Ci/mmole). EDTA was added to 1 mM.
A cDNA fragment encoding the carboxy terminal part of human PARG from amino acid 378 to 976 was amplified by polymerase chain reaction with human thymus cDNA (Clontech, Palo Alto, Calif.) as a template and a pair of primers with the sequences of 5′-[…]-3′ and 5′-[…]-3′. The primers contained the restriction enzyme sites EcoRI and XhoI. The PCR amplified PARG DNA fragment was digested with EcoRI and XhoI, and then ligated to the same sites in pGEX-4T1 plasmid (acquired from Pharmacia/Upjohn Co., Kalamazoo, Mich.) to create pGEX-PARG by using standard molecular biology procedure. The pGEX-PARG was transformed into E. coli strain BL21 for expressing the recombinant protein that has a glutathione-S-transferase at the amino terminus and fused in frame with PARG at the carboxy terminus. The recombinant protein was expressed and purified using glutathione-sephadex 4B beads according to the standard methodology.
A range of potential PARG inhibitors at final concentrations of 200.0 to 0.1 μM were tested, each point done in triplicate. The compounds were dissolved in DMSO resulting in a final DMSO concentration of 5.0%. The reaction was carried out in a volume of 0.1 mL. PARG enzyme was added to a concentration of 0.05 μL/mL to microtiter plates containing approximately 10 μM 3H-labeled poly-(ADP-ribose) in 50 mM Phosphate buffer (pH 7.1), 5 mM B-mercaptoethanol. The reaction was incubated at 23° C. for 10 min. and was stopped with the addition of TCA to a final concentration of 10%.
Enzyme activity was measured by the disappearance of substrate, [poly-(ADP-ribose) polymer], which was quantified as the loss of glass fiber filter adsorbed radioactivity. The reaction was harvested onto Millipore GFC96 well filter plates using the Packard Cell Harvestor. The plates were washed three times with 70% ethanol, air dried, and the radioactivity was measured by scintillation counting.
“3,9-Bis[3-(1-pyrrolo)propionyl]fluoranthene [Example 55]”: the half-maximal inhibitory concentration (IC50) came to 27.3 µM.

“3,9-Bis{N-[(2,3-dimethoxy-phenyl)]-methyl}fluoranthenedicarboxamide [Example 34]”: the IC50 came out at 31.2 µM.

`O=C(OCc1ccc(F)cc1)c1ccc2c(c1)C(Cl)(Cl)c1cc(C(=O)OCc3ccc(F)cc3)ccc1-2` [Example 4, 9,9-Dichloro-9H-fluorene-2,7-dicarboxylic acid bis-(p-fluorobenzyl) ester]: the IC50 came out at 18.9 µM.

For `O=C(OCCc1ccccc1)c1ccc2c(c1)C(Cl)(Cl)c1cc(C(=O)OCCc3ccccc3)ccc1-2` [Example 5, 9,9-Dichloro-9H-fluorene-2,7-dicarboxylic acid bis-(2-phenyl-ethyl) ester], the IC50 is 11.2 µM.

On to `O=C(OCc1ccc(O)c(O)c1)c1ccc2c(c1)C(Cl)(Cl)c1cc(C(=O)OCc3ccc(O)c(O)c3)ccc1-2` [Example 6, 9,9-Dichloro-9H-fluorene-2,7-dicarboxylic acid bis-(3,4-dihydroxy-benzyl) ester], for which the IC50 worked out at 10 µM.

Turning to `COC(=O)c1ccc2c(c1)C(Cl)(Cl)c1cc(C(=O)OC)ccc1-2` [Example 7, 9,9-Dichloro-9H-fluorene-2,7-dicarboxylic acid bis-methyl ester], the IC50 is 45.6 µM.

Regarding `O=C(OCCc1cccc2ccccc12)c1ccc2c(c1)C(Cl)(Cl)c1cc(C(=O)OCCc3cccc4ccccc34)ccc1-2` [Example 8, 9,9-Dichloro-9H-fluorene-2,7-dicarboxylic acid bis-(2-naphthalen-1-yl-ethyl) ester], the IC50 came to 17.1 µM.

Turning to `O=C(OCCc1ccc2ccccc2c1)c1ccc2c(c1)C(Cl)(Cl)c1cc(C(=O)OCCc3ccc4ccccc4c3)ccc1-2` [Example 9, 9,9-Dichloro-9H-fluorene-2,7-dicarboxylic acid bis-(2-naphthalen-2-yl-ethyl) ester], the IC50 was 46.6 µM.

On to `O=C(OCc1ccc2ccccc2c1)c1ccc2c(c1)C(Cl)(Cl)c1cc(C(=O)OCc3ccc4ccccc4c3)ccc1-2` [Example 10, 9,9-Dichloro-9H-fluorene-2,7-dicarboxylic acid bis-(2-naphthalen-2-yl-methyl) ester], for which the IC50 is 27.1 µM.

As to `O=C(OCc1cccc2ccccc12)c1ccc2c(c1)C(Cl)(Cl)c1cc(C(=O)OCc3cccc4ccccc34)ccc1-2` [Example 11, 9,9-Dichloro-9H-fluorene-2,7-dicarboxylic acid bis-(2-naphthalen-1-yl-methyl) ester], the IC50 worked out at 7.9 µM.

Take `COc1ccc(CCCCOC(=O)c2ccc3c(c2)C(Cl)(Cl)c2cc(C(=O)OCCCCc4ccc(OC)cc4)ccc2-3)cc1` [Example 12, 9,9-Dichloro-9H-fluorene-2,7-dicarboxylic acid bis-[4-(4-methoxy-phenyl)-butyl]ester]: the IC50 was 18.3 µM.

`O=C(NCc1cccc2ccccc12)c1ccc2c(c1)C(Cl)(Cl)c1cc(C(=O)NCc3cccc4ccccc34)ccc1-2` [Example 14, 2,7 Bis-[N-(naphthalen-1-ylmethyl)-carbamoyl]-9,9-dichloro-9H-fluorene]: the IC50 worked out at 47.7 µM.

Take `O=C(NCCc1ccccc1)c1ccc2c(c1)C(Cl)(Cl)c1cc(C(=O)NCCc3ccccc3)ccc1-2` [Example 15, 2,7-Bis-[N-(phenethyl)-carbamoyl]-9,9-dichloro-9H-fluorene]: the IC50 stood at 24.9 µM.

As to `O=C(NCc1ccccc1)c1ccc2c(c1)C(=O)c1cc(C(=O)NCc3ccccc3)ccc1-2` [Example 17, 2,7-Bis(N-benzylcarbamoyl)-9-Oxo-9H-fluorene], the IC50 is 21.8 µM.

Consider `O=C(NCc1ccccc1)c1ccc(C(=O)c2ccc(C(=O)NCc3ccccc3)cc2)cc1` [Example 19, 4,4′-Bis(N-benzyl)carbamoyl-benzophenone], for which the IC50 came out at 75 µM.

Regarding `O=C(NCCCc1ccccc1)c1ccc(C(=O)c2ccc(C(=O)NCCCc3ccccc3)cc2)cc1` [Example 20, 4,4′-Bis(N-phenpropyl)carbamoyl-benzophenone], the IC50 was 40.1 µM.
